Reference: PMC9161444, “In-Membrane Nanostructuring of Cationic Amphiphiles Affects Their Antimicrobial Efficacy and Cytotoxicity: A Comparison Study between a De Novo Antimicrobial Lipopeptide and Traditional Biocides” (Langmuir, 2022)
Several values for one entry are separate records, joined by “and”; a condition that tells them apart may be missing. Equal entries are not always repeated.

What was measured:
[1] = system: E. coli (ATCC 25922); format: cell-based, Escherichia coli; conditions: for MIC/CAC, converted data, E. coli: MIC divided by the amphiphile's CAC; for MIC, E. coli: microdilution, serial half-dilution in PBS, Mueller Hinton broth, 37 °C, 24 h, 10^6 CFU/mL, by eye and OD600, ± SD, at least three replicates
Procedure: E. coli (ATCC 25922), S. aureus (ATCC 6538), and C. albicans SC5314 (ATCC MYA-2876) were purchased from the American Type Culture Collection (ATCC). The two bacterial strains, E. coli and S. aureus, were cultured in Mueller Hinton broth at 37 °C; while the yeast strain, C. albicans, was grown in RPMI 1640 medium at 30 °C. The microdilution method was employed to determine MICs of the amphiphiles against the microorganism strains listed above.[21] Solutions of lipopeptides and biocides were half-diluted serially in 96-well plates using PBS buffer containing 137 mM NaCl, 2.7 mM KCl, 8.1 mM Na2HPO4, and 1.9 mM KH2PO4 for E. coli and S. aureus and using RPMI 1640 for C. albicans. Overnight incubations of the strains, in each respective growth medium, were then inoculated into each well, giving final concentrations of 10^6 CFU/mL for E. coli and S. aureus and 10^5 CFU/mL for C. albicans. Culture media without microorganisms and amphiphiles were employed as positive controls, while fresh microorganism cultures without amphiphiles were used as negative controls. Each plate has both positive controls and negative controls. The plates were then incubated at an appropriate temperature (stated above) for 24 h for the bacterial strains and 48 h for the yeast strain. MICs of each sample were first determined by eye. A more quantitative analysis was carried out by measuring optical densities at 600 nm (OD600) of each well using a Sunrise absorbance microplate reader (Tecan Group Ltd.). Inhibitory ratios (IRs) of each sample at a given concentration against a specific strain, denoted as IRi, were calculated by IRi = (OD600,negative control – OD600,i)/(OD600,negative control – OD600,positive control) × 100%. All experiments were repeated at least three times with each group containing three replicates. To better analyze concentration–IR relationships, sigmoidal function fittings were employed to generate the best fitted dose response curve for each situation.

[2] = Neutron reflectivity of amphiphile binding to lipid monolayer; conditions: C14KKGGII 5 μM, C14TAB 2.5 μM, C12TAB 75 μM; for Γamphiphile, amount bound to DPPC monolayer / Γamphiphile, amount bound to DPPG monolayer: monolayer at 28 mN/m; for DPPG lipid removed from monolayer: NR
Procedure: Single-component lipid monolayer models in a Langmuir trough (12.5 cm × 15 cm, Nima Technology Ltd., UK) were employed to investigate interactions between amphiphiles and lipids. The trough was filled with 70 mL of PBS at room temperature to provide a physiological environment.[23]−[25] Saturated head-charged lipid DPPG and saturated zwitterionic DPPC monolayers, mimicking negatively charged microbial membranes and mammalian cell membranes, respectively, were formed, and their interactions with amphiphiles were controlled by injecting each amphiphile carefully from outside the trough barrier. The lipids were dissolved in a chloroform/methanol mixture (v/v 9:1) to form the spreading solution. The lipid monolayer was spread by dripping the lipid solution onto the surface of the PBS solution. Following stabilization of the surface pressure, three cycles of isothermal compression and expansion were carried out to make the monolayer homogeneous. The surface was controlled at an initial pressure of 28 mN/m to mimic the static pressure within cell membranes. The final concentration of the amphiphile after injection was 1/40 of its CAC value for C14TAB, while the final concentration was 3/40 CAC for C12TAB because of its relatively higher MICs. Surface pressure changes with time following the injection process were recorded and analyzed.
Monolayer models described above were characterized using neutron reflectivity (NR) to measure the component distribution normal to the air/liquid interface. Measurements were performed on the SURF reflectometer at the ISIS Neutron and Muon Source (STFC Rutherford Appleton Laboratory, Didcot, UK).[23]−[25] The instrument provided a momentum transfer (Q) range from 0.01 to 0.5 Å^–1 [Q = […], where λ is the wavelength of the incoming neutron beam and θ is the incident angle]. At the start of the NR measurements, the reflectivity of the air/D2O interface was used for instrument calibration. Monolayers were prepared on the beamline. For each interaction, different isotopic contrasts were examined by applying chain-deuterated or fully hydrogenated versions of lipids (d62-DPPG, DPPG, d62-DPPC, and DPPC, denoted as dDPPG, hDPPG, dDPPC, and hDPPC, respectively) on the surface of PBS in D2O or null reflecting water (NRW, H2O/D2O = 91.9%/8.1%, v/v) and injecting deuterated or protonated versions of amphiphiles (C14KKGGII, dC14KKGGII, C12TAB, dC12dTAB, and C14TAB, denoted as hC14KKGGII, dC14KKGGII, hC12TAB, dC12TAB, and hC14TAB, respectively) from underneath the lipid monolayer outside the trough barrier bar. Reflectivity profiles from lipid monolayers were scanned before amphiphile injection to ensure good monolayer reproducibility. Raw data were reduced using Mantid software, and the resultant NR profiles were fitted via the least squares method using a Motofit package on Igor 6, where a multilayer model was employed in the analysis. The thickness and scattering length density (SLD, Nb) of each layer, that is, lipid tail region, lipid head region, and lipopeptide region, were fitted to the data. The SLD of each layer is related to the volume fractions of its components and could be calculated using Nb = ∑iφiNbi, where i denotes each component, for example, the solvent, lipid tails, lipid heads, lipopeptides’ acyl chains, and lipopeptides’ amino acids, and φi represents the volume fraction of component i and is constrained by ∑iφi = 1 in each layer. More details about the division of the molecular head/tail groups and relevant fitting parameters can be found in Figure S3 and Tables S3 and S4.

[3] = system: hRBCs; format: cell-based, human; conditions: hemolysis in PBS, 4% hRBC suspension mixed 1:1, 37 °C, 1 h, OD450, sigmoidal fit; ± SD, at least three replicates; read-out: EC50, hRBC (50% hemolysis)
Procedure: hRBCs were purchased from Rockland Immunochemical Inc. Hemolytic assays were performed in 96-well plates in an environment of PBS, as previously described.[13],[23] Amphiphiles were half diluted serially at first, resulting in 100 μL of solution in each well, and mixed subsequently with 100 μL of 4% hRBC suspension. Wells filled by PBS mixed with hRBC were employed as positive controls, while hRBCs with added 0.1% Triton X-100 were negative controls. After incubating at 37 °C for 1 h, the plates were centrifuged at 1000 times gravity for 5 min. The supernatants in each well, which contained the released hemoglobin, were transferred to another plate, and their optical density at 450 nm (OD450) was measured using an absorbance microplate reader. The percentage of hemolysis H for each sample at a certain concentration c was obtained by Hc = (OD450,c – OD450,positive control)/(OD450,negative control – OD450,positive control) × 100%. Figures for percentage leakage against concentration for each sample were plotted to determine the approximate range of 50% hemolysis, and the relevant concentration was the half maximal effective concentration (EC50) of the sample. Each experiment was repeated at least three times with each containing three replicates. The dose–response curves were again obtained by applying sigmoidal functional fits to obtain the EC50 values.

| SMILES | MIC/CAC, converted data, E. coli [1] | MIC, E. coli [1] | Γlipid, DPPC remaining on the surface after amphiphile binding ([2]; NR best fit, DPPC monolayer at 28 mN/m, 3.08 ± 0.08 before) | Γlipid, DPPG remaining on the surface after amphiphile binding ([2]; NR best fit, DPPG monolayer at 28 mN/m, 3.35 ± 0.01 before) | Γamphiphile, amount bound to DPPC monolayer ([2]; NR best fit) | Γamphiphile, amount bound to DPPG monolayer ([2]; NR best fit) | DPPG lipid removed from monolayer [2] | EC50 [3] |
| --- | --- | --- | --- | --- | --- | --- | --- | --- |
| CCCCCCCCCCCC[N+](C)(C)C.[Br-] [C12TAB, dodecyltrimethylammonium bromide] | 0.20 ± 0.04 | 200 ± 40 µM | 2.55 ± 0.01 μmol/m^2 | 2.70 ± 0.20 μmol/m^2 | 0.98 ± 0.02 μmol/m^2 | 1.51 ± 0.01 μmol/m^2 | 22% | 610 ± 30 µM |
| CCCCCCCCCCCCCC[N+](C)(C)C.[Br-] [C14TAB, tetradecyltrimethylammonium bromide] | 1 and 1.00 ± 0.30 | 100 ± 30 µM |  |  | 1.10 ± 0.01 μmol/m^2 | 1.43 ± 0.02 μmol/m^2 | 19% | 98 ± 8 µM |
